What was measured:
A498 = assay: NCI60 five-dose screen; type: cell-based; conditions: Homo sapiens, A498, renal cancer; for CC50: read-out: LC50 (the source's name)
OVCAR-3 = assay: NCI60 five-dose screen; type: cell-based; conditions: Homo sapiens, OVCAR-3, ovarian cancer; for CC50: read-out: LC50 (the source's name)
ACHN = assay: NCI60 five-dose screen; type: cell-based; conditions: Homo sapiens, renal cancer; for CC50: read-out: LC50 (the source's name)
[1] = tested on: T47D breast cancer cell line; assay: Cytotoxicity MTT assay, T47D; type: cell-based, human; conditions: for activity against T47D in two-dose screen: 10 µM and 50 µM
Experimental: (§1) T47D (ATCC HTB-133) was purchased from Biomedia (Thailand) Co., LTD. L929 (ATCC CCL-1) was received as a gift from Prof. Tanapat Palaga, Department of Microbiology, Faculty of Science, Chulalongkorn University, Bangkok, Thailand. The cells were cultured in Dulbecco's Modified Eagle's Medium (DMEM; Gibco) supplemented with 10% fetal bovine serum (FBS; HyClone), 100 U mL^−1 penicillin and 100 µg mL^−1 streptomycin (Gibco) at 37 °C with 5% CO2.
(§2) The antiproliferative activity was determined by MTT assay. Briefly, the cells were plated into a 96-well microplate at the density of 10 000 cells per well. The cells were allowed to grow overnight before treated with the solutions of compounds in culture medium at the designated concentrations for 48 hours. The medium was then replaced with MTT solution (0.5 mg mL^−1 MTT in culture medium) and incubated for 3 hours. A 100 µL of DMSO was used to dissolve the produced formazan. Absorbance at 570 nm was then measured using a microplate reader (Varioskan™ LUX multimode microplate reader, Thermo Scientific™). Percent viability was calculated relative to the vehicle control (DMSO).

HOP-92 = assay: NCI60 five-dose screen; type: cell-based; conditions: Homo sapiens, HOP-92, NSC lung cancer; for CC50: read-out: LC50 (the source's name)
NCI-H460 = assay: NCI60 five-dose screen; type: cell-based; conditions: Homo sapiens, NCI-H460, NSC lung cancer; for CC50: read-out: LC50 (the source's name)
HCT-15 = assay: NCI60 five-dose screen; type: cell-based; conditions: Homo sapiens, HCT-15, colon cancer; for CC50: read-out: LC50 (the source's name)
OVCAR-4 = assay: NCI60 five-dose screen; type: cell-based; conditions: Homo sapiens, OVCAR-4, ovarian cancer; for CC50: read-out: LC50 (the source's name)
A549/ATCC = assay: NCI60 five-dose screen; type: cell-based; conditions: Homo sapiens, NSC lung cancer; for CC50: read-out: LC50 (the source's name)
BT-549 = assay: NCI60 five-dose screen; type: cell-based; conditions: Homo sapiens, BT-549, breast cancer; for CC50: read-out: LC50 (the source's name)
HCT-116 = assay: NCI60 five-dose screen; type: cell-based; conditions: Homo sapiens, HCT-116, colon cancer; for CC50: read-out: LC50 (the source's name)
HOP-62 = assay: NCI60 five-dose screen; type: cell-based; conditions: Homo sapiens, HOP-62, NSC lung cancer; for CC50: read-out: LC50 (the source's name)
LOX IMVI = assay: NCI60 five-dose screen; type: cell-based; conditions: Homo sapiens, melanoma; for CC50: read-out: LC50 (the source's name)
SF-539 = assay: NCI60 five-dose screen; type: cell-based; conditions: Homo sapiens, SF-539, CNS cancer; for CC50: read-out: LC50 (the source's name)
HT29 = assay: NCI60 five-dose screen; type: cell-based; conditions: Homo sapiens, HT-29, HT29, colon cancer; for CC50: read-out: LC50 (the source's name)
SNB-75 = assay: NCI60 five-dose screen; type: cell-based; conditions: Homo sapiens, SNB-75, CNS cancer; for CC50: read-out: LC50 (the source's name)
CAKI-1 = assay: NCI60 five-dose screen; type: cell-based; conditions: Homo sapiens, CAKI-1, renal cancer; for CC50: read-out: LC50 (the source's name)
K-562 = assay: NCI60 five-dose screen; type: cell-based; conditions: Homo sapiens, K562, K-562, leukemia; for CC50: read-out: LC50 (the source's name)
NCI-H226 = assay: NCI60 five-dose screen; type: cell-based; conditions: Homo sapiens, NCI-H226, NSC lung cancer; for CC50: read-out: LC50 (the source's name)
PC-3 = assay: NCI60 five-dose screen; type: cell-based; conditions: Homo sapiens, PC-3, prostate cancer; for CC50: read-out: LC50 (the source's name)
DU-145 = assay: NCI60 five-dose screen; type: cell-based; conditions: Homo sapiens, DU-145, prostate cancer; for CC50: read-out: LC50 (the source's name)
[2] = tested on: L929 normal mouse fibroblast cell line; assay: Cytotoxicity MTT assay, L929; type: cell-based; conditions: 50 µM single concentration
Experimental: as §1, §2

O=C(N/N=C/c1cc([N+](=O)[O-])c[nH]1)c1[nH]c2ccc(Br)cc2c1-c1ccccc1 [Derivative 3q, (E)-5-Bromo-N′-((4-nitro-1H-pyrrol-2-yl)methylene)-3-phenyl-1H-indole-2-carbohydrazide]
GI50 (A498): 10.7 µM | CC50 (A498): > 100 µM | GI50 (OVCAR-3): 0.397 µM | CC50 (OVCAR-3): > 100 µM | GI50 (ACHN): 0.791 µM | CC50 (ACHN): > 100 µM | activity against T47D in two-dose screen [1]: weak activity | GI50 (HOP-92): 11.6 µM | CC50 (HOP-92): > 100 µM | GI50 (NCI-H460): 0.328 µM | CC50 (NCI-H460): > 100 µM | GI50 (HCT-15): 0.504 µM | CC50 (HCT-15): > 100 µM | GI50 (OVCAR-4): 1.06 µM | CC50 (OVCAR-4): > 100 µM | GI50 (A549/ATCC): 1.79 µM | CC50 (A549/ATCC): > 100 µM | GI50 (BT-549): 2.47 µM | CC50 (BT-549): > 100 µM | GI50 (HCT-116): 0.491 µM | CC50 (HCT-116): > 100 µM | GI50 (HOP-62): 1.26 µM | CC50 (HOP-62): > 100 µM | GI50 (LOX IMVI): 0.647 µM | CC50 (LOX IMVI): > 100 µM | GI50 (SF-539): 0.822 µM | CC50 (SF-539): > 100 µM | GI50 (HT29): 0.469 µM | CC50 (HT29): > 100 µM | GI50 (SNB-75): 0.242 µM | CC50 (SNB-75): > 100 µM | GI50 (CAKI-1): 0.53 µM | CC50 (CAKI-1): > 100 µM | GI50 (K-562): 0.387 µM | CC50 (K-562): > 100 µM | GI50 (NCI-H226): 3.39 µM | CC50 (NCI-H226): > 100 µM | GI50 (PC-3): 0.724 µM | CC50 (PC-3): > 100 µM | GI50 (DU-145): 3.87 µM | CC50 (DU-145): > 100 µM

O=C(N/N=C/c1cc[nH]c1)c1[nH]c2ccc(Br)cc2c1-c1ccccc1 [Derivative 3b, (E)-N′-((1H-Pyrrol-3-yl)methylene)-5-bromo-3-phenyl-1H-indole-2-carbohydrazide]
GI50 (A498): 12.7 µM | CC50 (A498): 54.6 µM | GI50 (OVCAR-3): 1.09 µM | CC50 (OVCAR-3): 31.9 µM | GI50 (ACHN): 1.71 µM | CC50 (ACHN): 39 µM | activity against T47D in two-dose screen [1]: weak activity | GI50 (HOP-92): 1.87 µM | CC50 (HOP-92): 50.3 µM | GI50 (NCI-H460): 0.657 µM | CC50 (NCI-H460): 46 µM | GI50 (HCT-15): 0.918 µM | CC50 (HCT-15): 34 µM | GI50 (OVCAR-4): 4.82 µM | CC50 (OVCAR-4): 45.2 µM | GI50 (A549/ATCC): 1.61 µM | CC50 (A549/ATCC): 52.6 µM | GI50 (BT-549): 4.53 µM | CC50 (BT-549): 52.3 µM | GI50 (HCT-116): 0.991 µM | CC50 (HCT-116): > 100 µM | GI50 (HOP-62): 2.01 µM | CC50 (HOP-62): 61.4 µM | GI50 (LOX IMVI): 0.916 µM | CC50 (LOX IMVI): 38.7 µM | GI50 (SF-539): 0.869 µM | CC50 (SF-539): 17 µM | GI50 (HT29): 0.68 µM | CC50 (HT29): 34.5 µM | GI50 (SNB-75): 0.88 µM | CC50 (SNB-75): 32 µM | GI50 (CAKI-1): 0.776 µM | CC50 (CAKI-1): 44.1 µM | GI50 (K-562): 0.429 µM | CC50 (K-562): 97 µM | GI50 (NCI-H226): 2.52 µM | CC50 (NCI-H226): 51.2 µM | GI50 (PC-3): 2 µM | CC50 (PC-3): > 100 µM | GI50 (DU-145): 1.95 µM | CC50 (DU-145): 34.7 µM

CCOC(=O)c1ccc(/C=N/NC(=O)c2[nH]c3ccc(Br)cc3c2-c2ccccc2)[nH]1 [Derivative 3i, Ethyl (E)-5-((2-(5-bromo-3-phenyl-1H-indole-2-carbonyl)hydrazono)methyl)-1H-pyrrole-2-carboxylate]
GI50 (A498): 10.5 µM | CC50 (A498): 55.2 µM | GI50 (OVCAR-3): 2.63 µM | CC50 (OVCAR-3): 40.7 µM | GI50 (ACHN): 1.86 µM | CC50 (ACHN): 73.8 µM | IC50 ([1]; Homo sapiens, T47D, MTT, 48 hours): 11.8 ± 1.4 µM | GI50 (HOP-92): 2.33 µM | CC50 (HOP-92): > 100 µM | GI50 (NCI-H460): 2.8 µM | CC50 (NCI-H460): 41.4 µM | GI50 (HCT-15): 2.48 µM | CC50 (HCT-15): 40.5 µM | GI50 (OVCAR-4): 4.26 µM | CC50 (OVCAR-4): > 100 µM | GI50 (A549/ATCC): 3.25 µM | CC50 (A549/ATCC): 79.4 µM | GI50 (BT-549): 3.47 µM | CC50 (BT-549): > 100 µM | L929 cell survival [2]: > 80% | L929 toxicity at single concentration [2]: — ^c (No toxicity observed at 50 µM single concentration (>80% cell survival).) | GI50 (HCT-116): 3.24 µM | CC50 (HCT-116): > 100 µM | GI50 (HOP-62): 3.65 µM | CC50 (HOP-62): > 100 µM | GI50 (LOX IMVI): 2.26 µM | CC50 (LOX IMVI): 35.2 µM | GI50 (SF-539): 1.6 µM | CC50 (SF-539): 26.2 µM | GI50 (HT29): 2.32 µM | CC50 (HT29): 22.9 µM | GI50 (SNB-75): 0.399 µM | CC50 (SNB-75): > 100 µM | GI50 (CAKI-1): 0.961 µM | CC50 (CAKI-1): 74.2 µM | GI50 (K-562): 1.08 µM | CC50 (K-562): > 100 µM | GI50 (NCI-H226): 3.13 µM | CC50 (NCI-H226): 45.4 µM | GI50 (PC-3): 2.28 µM | CC50 (PC-3): > 100 µM | GI50 (DU-145): 3.32 µM | CC50 (DU-145): 38.7 µM

O=C(N/N=C/c1ccc([N+](=O)[O-])[nH]1)c1[nH]c2ccc(Br)cc2c1-c1ccccc1 [Derivative 3p, (E)-5-Bromo-N′-((5-nitro-1H-pyrrol-2-yl)methylene)-3-phenyl-1H-indole-2-carbohydrazide]
GI50 (A498): 2.6 µM | CC50 (A498): 43.7 µM | GI50 (OVCAR-3): 0.602 µM | CC50 (OVCAR-3): 34.8 µM | GI50 (ACHN): 1.26 µM | CC50 (ACHN): 38 µM | activity against T47D in two-dose screen [1]: weak activity | GI50 (HOP-92): 1.79 µM | CC50 (HOP-92): 47.3 µM | GI50 (NCI-H460): 0.421 µM | CC50 (NCI-H460): 45.9 µM | GI50 (HCT-15): 0.607 µM | CC50 (HCT-15): 35.7 µM | GI50 (OVCAR-4): 0.679 µM | CC50 (OVCAR-4): 35.9 µM | GI50 (A549/ATCC): 2.23 µM | CC50 (A549/ATCC): 44.9 µM | GI50 (BT-549): 1.52 µM | CC50 (BT-549): 28.4 µM | GI50 (HCT-116): 0.439 µM | CC50 (HCT-116): 33.8 µM | GI50 (HOP-62): 0.606 µM | CC50 (HOP-62): 39.5 µM | GI50 (LOX IMVI): 0.519 µM | CC50 (LOX IMVI): 35.8 µM | GI50 (SF-539): 0.389 µM | CC50 (SF-539): 28.1 µM | GI50 (HT29): 0.55 µM | CC50 (HT29): 43.9 µM | GI50 (SNB-75): 0.482 µM | CC50 (SNB-75): 40.5 µM | GI50 (CAKI-1): 0.411 µM | CC50 (CAKI-1): 34.9 µM | GI50 (K-562): 0.365 µM | CC50 (K-562): > 100 µM | GI50 (NCI-H226): 2.43 µM | CC50 (NCI-H226): 46.9 µM | GI50 (PC-3): 1.2 µM | CC50 (PC-3): 78.5 µM | GI50 (DU-145): 1.84 µM | CC50 (DU-145): 32.5 µM
